{
  "source": "patent US10010589B2",
  "about": "“Modified therapeutic agents, stapled peptide lipid conjugates, and compositions thereof” (priority 2013, dated 2018)",
  "target": "T1, human Glucagon-like peptide 2 receptor (GLP-2R) (Homo sapiens, UniProt O95838)",
  "T1 construct": "expressed in transfected cells",
  "T1 sequence (O95838 1-553)": "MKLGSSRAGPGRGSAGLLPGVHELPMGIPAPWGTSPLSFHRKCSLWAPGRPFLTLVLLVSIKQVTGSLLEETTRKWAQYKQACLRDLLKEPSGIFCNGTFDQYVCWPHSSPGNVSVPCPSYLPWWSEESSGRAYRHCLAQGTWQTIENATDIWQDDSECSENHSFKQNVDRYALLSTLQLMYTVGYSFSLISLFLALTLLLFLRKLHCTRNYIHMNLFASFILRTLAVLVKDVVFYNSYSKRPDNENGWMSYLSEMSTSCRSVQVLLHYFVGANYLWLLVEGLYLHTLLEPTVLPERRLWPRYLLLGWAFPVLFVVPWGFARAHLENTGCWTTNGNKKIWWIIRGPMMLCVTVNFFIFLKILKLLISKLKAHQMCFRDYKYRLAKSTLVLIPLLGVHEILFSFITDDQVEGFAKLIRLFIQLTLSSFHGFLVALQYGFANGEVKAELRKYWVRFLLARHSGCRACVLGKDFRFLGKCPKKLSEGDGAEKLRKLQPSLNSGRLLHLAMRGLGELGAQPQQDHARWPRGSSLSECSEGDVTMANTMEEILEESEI",
  "test": "GLP-2R CRE luciferase assay (receptor-mediated cAMP synthesis)",
  "assay_type": "cell-based",
  "description": "CREB responsive luciferase stable HEK 293 cell line overexpressing human glucagon receptor (GCGR), glucagon-like peptide 1 receptor (GLP-1R), Glucose-dependent insulinotropic polypeptide receptor (GIPR), or Glucagon-like peptide 2 receptor (GLP-2R) was generated as follows.\nHEK293 cells were infected with lent virus encoding firefly luciferase gene under the control of CRE promoter, as described in the manual (Qiagen, Netherlands) and then were selected using 1 μg/mL puromycin (Life technologies, Carlsbad) for 1 week. The survived cells were named as CRE-HEK293, expanded and then transfected with a G418 selective mammalian expression plasmid encoding human GCGR, GLP-1R, GIPR or GLP-2R. In brief, GCGR, GLP-1R, GIPR, or GLP-2R plasmid was transfected into CRE-HEK293 cells using Lipofectamine 2000 and selected with 400 μg/mL geneticin (Life technologies, Carlsbad, Calif.). […]\nHEK293-GCGR-CRE, HEK293-GLP-1R-CRE, HEK293-GIPR-CRE, and HEK293-GLP-2R-CRE cells were seeded in a white 384-well plate at a density of 5,000 cells per well and cultured for 24 hours. […] On the next day, 10 μl of Bright-Glo reagent (Promega, Madison, Wis.) were added into each well and firefly luminescence was determined using an Envision multilabel plate reader (PerkinElmer, Waltham, Mass.). EC50 of each peptide was calculated using GraphPad Prism 6 software (GraphPad, San Diego, Calif.).",
  "note": "*1 amine or outer side, *2 acyl side, *3 side chain or, on linkers, in order; H or OH if unused. Where a SMILES comes first, the peptide text is derived from it. Bridges are numbered along the chain shown (N, C = ends). CH2CONH(CH2)4NHCOCH2 = O=C(C[*:1])NCCCCNC(=O)C[*:2]",
  "data": [
    {"smiles": "CC[C@H](C)[C@@H]1NC(=O)[C@H](Cc2ccccc2)NC(=O)[C@H](CC(=O)O)NC(=O)[C@H](CCCNC(=N)N)NC(=O)[C@H](C)NC(=O)[C@H](C)NC(=O)[C@H](CC(C)C)NC(=O)[C@@H](NC(=O)[C@H](CC(=O)O)NC(=O)[C@H](CC(C)C)NC(=O)[C@@H](NC(=O)[C@@H](NC(=O)[C@H](CC(N)=O)NC(=O)[C@H](CCSC)NC(=O)[C@H](CCC(=O)O)NC(=O)[C@H](CC(=O)O)NC(=O)[C@H](CO)NC(=O)[C@H](Cc2ccccc2)NC(=O)[C@H](CO)NC(=O)CNC(=O)[C@H](CC(=O)O)NC(=O)CNC(=O)[C@@H](N)Cc2c[nH]cn2)[C@@H](C)O)[C@@H](C)CC)CSCC(=O)NCCCCNC(=O)CSC[C@@H](C(=O)N[C@@H](Cc2c[nH]c3ccccc23)C(=O)N[C@@H](CC(C)C)C(=O)N[C@H](C(=O)N[C@@H](CCC(N)=O)C(=O)N[C@H](C(=O)N[C@@H](CCCCN)C(=O)N[C@H](C(=O)N[C@H](C(=O)N[C@@H](CC(=O)O)C(N)=O)[C@@H](C)O)[C@@H](C)CC)[C@@H](C)O)[C@@H](C)CC)NC1=O", "note": "[mTA52] (H-HGDGSFSDEMNTILDCLAARDFICWLIQTKITD-NH2; linker 16-24 via CH2CONH(CH2)4NHCOCH2)", "values": [
      {"measurement": "EC50", "result": 5.6, "unit": "nM"}
    ]}
  ]
}
